Consider two compounds from publication PMC10447287, “Optimisation of Pharmaceutical Cocrystal Dissolution Performance through a Synergistic Precipitation Inhibition” (Pharmaceutical Research, 2023).

The nature of series [1]: Equilibrium solubility of FFA in DDW and PBS in the absence and presence of a predissolved polymer or a combination. The series is classed as physicochemical. The protocol:
The FFA solubility was determined by suspending an excess amount of crystalline materials of FFA I in small vials with 20 mL of a selected dissolution medium (i.e., DDW or PBS pH 4.5) in the absence and presence of a predissolved single polymer and a combination. The detailed polymers and their corresponding concentrations were 0.2 mg/mL of PVP-VA, 1 mg/mL of PEG and 0.2 mg/mL of SLP, which were based on the previous study and the solubility curve obtained in the preliminary study in Figure S5 in the supporting materials. All of the suspensions were kept at 37 ± 0.5°C in a water bath with a shaking rate of 150 rpm for 24 h. Each of the supernatants was separated from excess solids in solution by centrifugation at 13,000 RPM for 1 min in an MSB 010.CX2.5 centrifuge (MSE Ltd., London, U.K.). Subsequently, the supernatant was diluted using ethanol, and the FFA concentration was determined using HPLC. The solid residues retrieved from the tests were dried for 24 h at ambient temperature and then analysed by PXRD. Each of the experiments was conducted in triplicate, and data were reported as an average concentration. Additionally, the FFA solubility in PBS pH 6.8 at 37 ± 0.5°C was also measured in triplicate. The solids were scanned by D2 phaser diffractometer (Bruker U.K. Limited, Coventry, UK) with […] radiation operating at voltage of 30 kV and current of 10 mA. The scanning angle ranged from 2°-40° of 2θ. The scanning time per step was 0.4 s. The scan step size was 0.02° of 2θ.

The nature of series [2]: Particle size distribution of sieved powders. The series is classed as physicochemical. The following applies: sieved particles < 250 μm. The protocol: All samples (i.e., FFA, FFA-NIC cocrystal and FFA-TP cocrystal) used in the dissolution tests were slightly ground by a mortar and pestle and sieved by a 60-mesh sieve (below 250 μm) to reduce the influence of particle size on the dissolution rates. The particle size distributions of the test samples were measured using a SYNC Analyzer (MICROTRAC Retsch GmbH, Hann, Germany). The particle size distributions (D10, D50, D90 and mean particle size) of the solid particles were compared. The data were analysed by the Microtrac FLEX software (12.0.0.1).

The nature of series [3]: Dissolution tests of powders in DDW with predissolved polymer or combination (USP type II paddle). The series is classed as physicochemical. As to conditions: for solid residues after dissolution tests (PXRD): DDW in the absence or presence of predissolved polymers; for FFA concentration in solution after 4 h / FFA DPP (dissolution performance parameter): DDW; for FFA concentration in solution after 4 h: no polymer, powder dissolution; for FFA DPP (dissolution performance parameter): 0-4 h, reference same powder in DDW. The protocol: In vitro dissolution tests were performed with a USP type II paddle apparatus (DT 126 light, Erweka GmbH, Germany) at 37 ± 0.5°C with a paddle speed of 50 rpm in 400 mL of DDW in the absence and presence of a predissolved polymer (i.e., 0.2 mg/mL of PVP-VA, 1 mg/mL of PEG, 0.2 mg/mL of SLP) or a combination of two polymers (i.e., 0.2 mg/mL PVP-VA + 1 mg/mL PEG, […]).
71.7 mg of FFA-NIC cocrystal powders with the equivalent of 50 mg FFA I powders were used in each of the dissolution tests. Samples of 1 ± 0.1 mL were withdrawn from the dissolution vessel at the predefined time points of 5, 10, 15, 30, 60, 120, 180 and 240 min. The supernatant of each of the samples was separated from the excess solids by centrifugation at 13,000 RPM for 1 min in an MSE Micro Centaur. HPLC was used to determine the concentrations of FFA and NIC in solution. Solid residues obtained from the experiments were dried at room temperature and analysed by PXRD. All experiments were repeated in triplicate.
For comparison, the above dissolution tests were also repeated using 50 mg of pure FFA I powders and 82.0 mg of FFA-TP cocrystal powders.
DPP was used to evaluate the dissolution profile of the test powders in comparison to a reference system, which is defined as,4 DPP=AUCC(t)-AUCCR(t)/AUCCR(t)×100% where AUCC(t) is the area under the curve (AUC) of a dissolution profile C(t) , indicating the amount of drug dissolved is maintained over the period of the dissolution time from 0 to t, and AUCCR(t) is the AUC of a reference dissolution profile CR(t) .
The solids were scanned by D2 phaser diffractometer (Bruker U.K. Limited, Coventry, UK) with […] radiation operating at voltage of 30 kV and current of 10 mA. The scanning angle ranged from 2°-40° of 2θ. The scanning time per step was 0.4 s. The scan step size was 0.02° of 2θ.

The nature of series [4]: Ionisation constants of flufenamic acid. The series is classed as physicochemical. As to conditions: at pH 4.5.
Details of series [5]: method as in doi:10.1007/s10953-010-9642-6. As to conditions: cited from earlier work.
Setting [6] is: predissolved PVP-VA (0.2 mg/mL).
The mark [7] stands for this setting: predissolved SLP (0.2 mg/mL) + PVP-VA (0.2 mg/mL).

Take `O=C(O)c1ccccc1Nc1cccc(C(F)(F)F)c1` [FFA, Flufenamic acid]: the solubility (in general, the concentration that dissolves in the medium under given conditions) at 24 h in series [1] (DDW, 37 °C, aqueous with cosolvent or surfactant or cyclodextrin, thermodynamic from solid, DDW, predissolved PEG (1 mg/mL) + PVP-VA (0.2 mg/mL), 37°C) is 20.9 ± 5.35 µg/mL; in series [1] (DDW, 37 °C, aqueous with cosolvent or surfactant or cyclodextrin, thermodynamic from solid, DDW, predissolved SLP (0.2 mg/mL) + PVP-VA (0.2 mg/mL), 37°C) it was 119 ± 3.3 µg/mL; in series [1] (DDW, 37 °C, aqueous with cosolvent or surfactant or cyclodextrin, thermodynamic from solid, predissolved PEG (1 mg/mL)) it was 17.8 ± 1.72 µg/mL; in series [1] (DDW, 37 °C, aqueous with cosolvent or surfactant or cyclodextrin, thermodynamic from solid, predissolved PVP-VA (0.2 mg/mL)), 12 ± 1.4 µg/mL; in series [1] (DDW, absence of polymer, 37°C), 10.1 ± 0.79 µg/mL; in series [1] (DDW, predissolved SLP (0.2 mg/mL), 37°C), 111 ± 16.2 µg/mL. Moreover, the solubility at 24 h in series [1] (PBS pH 4.5, 37 °C, pH 4.5, aqueous buffer, thermodynamic from solid, PBS pH 4.5, absence of polymer, 37°C) was 18.3 ± 2.39 µg/mL; in series [1] (PBS pH 4.5, 37 °C, pH 4.5, aqueous with cosolvent or surfactant or cyclodextrin, thermodynamic from solid, PBS pH 4.5, predissolved PEG (1 mg/mL) + PVP-VA (0.2 mg/mL), 37°C) it was 11.4 ± 0.22 µg/mL; in series [1] (PBS pH 4.5, 37 °C, pH 4.5, aqueous with cosolvent or surfactant or cyclodextrin, thermodynamic from solid, PBS pH 4.5, predissolved PVP-VA (0.2 mg/mL), 37°C) it was 11 ± 1.32 µg/mL; in series [1] (PBS pH 4.5, 37 °C, pH 4.5, aqueous with cosolvent or surfactant or cyclodextrin, thermodynamic from solid, PBS pH 4.5, predissolved SLP (0.2 mg/mL) + PVP-VA (0.2 mg/mL), 37°C) it was 41.1 ± 4.2 µg/mL; in series [1] (PBS pH 4.5, 37 °C, pH 4.5, aqueous with cosolvent or surfactant or cyclodextrin, thermodynamic from solid, PBS pH 4.5, predissolved SLP (0.2 mg/mL), 37°C), 41.9 ± 2.5 µg/mL; in series [1] (PBS pH 4.5, pH 4.5, PBS pH 4.5, predissolved PEG (1 mg/mL), 37°C), 9.01 ± 0.26 µg/mL. Besides, in series [1] (PBS pH 6.8, 37 °C, pH 6.8, aqueous buffer, thermodynamic from solid, PBS pH 6.8, absence of polymer, 37°C), the solubility worked out at 741.1 ± 6.27 µg/mL. Moreover, the “solid form of residues after solubility tests (PXRD)” value in series [1] (after 24 h in various media) is “remained the form I”. Further, the D10 in series [2] is 5.19 μm. Also, the D50 in series [2] stood at 13.58 μm. In series [2], the D90 was determined as 84.86 μm. For the same compound, in series [2], the Mean particle size amounted to 31.71 μm. Also, the “solid residues after dissolution tests (PXRD)” value in series [3] is reported as “no phase transformation”. Besides, the “FFA concentration in solution after 4 h” value in series [3] was 4.99 µg/mL. Also, the “FFA DPP (dissolution performance parameter)” value (shortened to “FFA DPP”) in series [3] (setting [6]) is on record as -24%; in series [3] (setting [7]), 50%; in series [3] (predissolved SLP (0.2 mg/mL)), 30%. Further, the “fraction in the neutral form” value in series [4] is recorded as “more than 75%”. The “isoelectric point pH” value in series [5] is 3.88 ± 0.03. The “pKa1 (basic group)” value in series [5] is given as 2.92 ± 0.01. For the same compound, the “pKa2 (acidic group)” value in series [5] is given as 4.84 ± 0.04.
In series [2], `Cn1c(=O)c2[nH]cnc2n(C)c1=O.O=C(O)c1ccccc1Nc1cccc(C(F)(F)F)c1` [FFA-TP cocrystal] had a D10 of 5.25 μm, a D50 of 12.32 μm, a D90 of 56.64 μm and a Mean particle size of 23.92 μm. Also, in series [3], the “solid residues after dissolution tests (PXRD)” value was “the same as the starting materials” and the “FFA concentration in solution after 4 h” value is 8.35 µg/mL. Besides, the “FFA DPP” value in series [3] (predissolved PEG (1 mg/mL) + PVP-VA (0.2 mg/mL)) stood at 12%. Besides, the “FFA DPP” value in series [3] (predissolved PEG (1 mg/mL)) was determined as 24%. In series [3] (setting [6]), the “FFA DPP” value was -17%. For the same compound, the “FFA DPP” value in series [3] (setting [7]) is recorded as 23%. For the same compound, in series [3] (predissolved SLP (0.2 mg/mL)), the “FFA DPP” value was found to be 3%.
